Experiment: xn = mol fraction of the nth substance listed
Settings: for mass density: 101.3 kPa, Liquid, vibrating tube; for surface tension liquid-gas: Pendant drop shape

CN(C)C=O [dimethylformamide] + Cc1ccccc1
Settings | mass density [kg/m3] | surface tension liquid-gas [mN/m]
278.15 K, x2 = 0 | 963 | –
278.15 K, x2 = 0.1502 | 949.1 | –
278.15 K, x2 = 0.3 | 935.7 | –
278.15 K, x2 = 0.4492 | 923.1 | –
278.15 K, x2 = 0.5998 | 911 | –
278.15 K, x2 = 0.7548 | 898.9 | –
283.15 K, x2 = 0 | 958.3 | –
283.15 K, x2 = 0.1502 | 944.4 | –
283.15 K, x2 = 0.3 | 931.1 | –
283.15 K, x2 = 0.4492 | 918.6 | –
283.15 K, x2 = 0.5998 | 906.5 | –
283.15 K, x2 = 0.7548 | 894.5 | –
287.81 K, x2 = 0 | – | 36.96
287.81 K, x2 = 0.1502 | – | 35.22
287.81 K, x2 = 0.3 | – | 33.42
287.81 K, x2 = 0.4492 | – | 32.15
287.81 K, x2 = 0.5998 | – | 31.2
287.81 K, x2 = 0.7548 | – | 30.17
288.15 K, x2 = 0 | 953.7 | –
288.15 K, x2 = 0.1502 | 939.9 | –
288.15 K, x2 = 0.3 | 926.6 | –
288.15 K, x2 = 0.4492 | 914.1 | –
288.15 K, x2 = 0.5998 | 902 | –
288.15 K, x2 = 0.7548 | 890 | –
293.15 K, x2 = 0 | 949.1 | –
293.15 K, x2 = 0.1502 | 935.3 | –
293.15 K, x2 = 0.3 | 922 | –
293.15 K, x2 = 0.4492 | 909.5 | –
293.15 K, x2 = 0.5998 | 897.5 | –
293.15 K, x2 = 0.7548 | 885.5 | –
297.82 K, x2 = 0 | – | 35.83
297.82 K, x2 = 0.1502 | – | 33.97
297.82 K, x2 = 0.3 | – | 32.5
297.82 K, x2 = 0.4492 | – | 31.04
297.82 K, x2 = 0.5998 | – | 30.04
297.82 K, x2 = 0.7548 | – | 29.17
298.15 K, x2 = 0 | 944.5 | –
298.15 K, x2 = 0.1502 | 930.6 | –
298.15 K, x2 = 0.3 | 917.4 | –
298.15 K, x2 = 0.4492 | 905 | –
298.15 K, x2 = 0.5998 | 892.9 | –
298.15 K, x2 = 0.7548 | 880.9 | –
303.15 K, x2 = 0 | 939.9 | –
303.15 K, x2 = 0.1502 | 926.1 | –
303.15 K, x2 = 0.3 | 912.9 | –
303.15 K, x2 = 0.4492 | 900.4 | –
303.15 K, x2 = 0.5998 | 888.4 | –
303.15 K, x2 = 0.7548 | 876.4 | –
307.86 K, x2 = 0 | – | 34.65
307.86 K, x2 = 0.1502 | – | 32.84
307.86 K, x2 = 0.3 | – | 31.2
307.86 K, x2 = 0.4492 | – | 29.86
307.86 K, x2 = 0.5998 | – | 28.98
307.86 K, x2 = 0.7548 | – | 28.06
308.15 K, x2 = 0 | 935.4 | –
308.15 K, x2 = 0.1502 | 921.5 | –
308.15 K, x2 = 0.3 | 908.3 | –
308.15 K, x2 = 0.4492 | 895.9 | –
308.15 K, x2 = 0.5998 | 883.8 | –
308.15 K, x2 = 0.7548 | 871.8 | –
313.15 K, x2 = 0 | 930.9 | –
313.15 K, x2 = 0.1502 | 917 | –
313.15 K, x2 = 0.3 | 903.8 | –
313.15 K, x2 = 0.4492 | 891.3 | –
313.15 K, x2 = 0.5998 | 879.2 | –
313.15 K, x2 = 0.7548 | 867.2 | –
317.86 K, x2 = 0 | – | 33.37
317.86 K, x2 = 0.1502 | – | 31.7
317.86 K, x2 = 0.3 | – | 30.21
317.86 K, x2 = 0.4492 | – | 28.77
317.86 K, x2 = 0.5998 | – | 27.61
317.86 K, x2 = 0.7548 | – | 26.85
318.15 K, x2 = 0 | 926.3 | –
318.15 K, x2 = 0.1502 | 912.4 | –
318.15 K, x2 = 0.3 | 899.2 | –
318.15 K, x2 = 0.4492 | 886.7 | –
318.15 K, x2 = 0.5998 | 874.6 | –
318.15 K, x2 = 0.7548 | 862.5 | –
323.15 K, x2 = 0 | 921.7 | –
323.15 K, x2 = 0.1502 | 907.8 | –
323.15 K, x2 = 0.3 | 894.6 | –
323.15 K, x2 = 0.4492 | 882 | –
323.15 K, x2 = 0.5998 | 869.9 | –
323.15 K, x2 = 0.7548 | 857.9 | –
327.88 K, x2 = 0 | – | 32.03
327.88 K, x2 = 0.1502 | – | 30.5
327.88 K, x2 = 0.3 | – | 29.04
327.88 K, x2 = 0.4492 | – | 27.62
327.88 K, x2 = 0.5998 | – | 26.59
327.88 K, x2 = 0.7548 | – | 25.7
328.15 K, x2 = 0 | 917.9 | –
328.15 K, x2 = 0.1502 | 903.3 | –
328.15 K, x2 = 0.3 | 890.1 | –
328.15 K, x2 = 0.4492 | 877.5 | –
328.15 K, x2 = 0.5998 | 865.3 | –
328.15 K, x2 = 0.7548 | 853.2 | –
333.15 K, x2 = 0 | 913.2 | –
333.15 K, x2 = 0.1502 | 899 | –
333.15 K, x2 = 0.3 | 885.7 | –
333.15 K, x2 = 0.4492 | 873 | –
333.15 K, x2 = 0.5998 | 860.7 | –
333.15 K, x2 = 0.7548 | 848.5 | –
